Source: ChEMBL document CHEMBL1201862, “PubChem BioAssay data set” (2004)
Activity calls are given as the source filed them.

How the values were obtained:
[1] = inhibitors of intracellular T. cruzi replication, confirmation, NIH3T3 host cells, beta-gal luminescence (AID 2044); assay type: functional, cell-based;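 also: intracellular parasites grown in NIH/3T3 mouse fibroblasts as host cells; luminescent beta-galactosidase reporter signal from transgenic T. cruzi replicating inside host cells; inhibitors lower the luminescence signal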
[2] = cytotoxicity toward NIH3T3 fibroblasts, dose response, counter-screen, cell-based, ATP luminescence, mouse fibroblasts (AID 2010); assay type: functional; settings: NIH3T3;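 also: cells exposed to compound for about 90 hours before reading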
[3] = cells
[4] = molecular target: T1, Aminopeptidase N (Plasmodium falciparum FcB1/Columbia, UniProt O96935); test: P. falciparum M1AAP inhibitors, biochemical, fluorogenic H-Leu-NHMec substrate, 1536-well (AID 1445); parameters: species or system Plasmodium falciparum 3D7, 3D7
T1 sequence (O96935 whole entry): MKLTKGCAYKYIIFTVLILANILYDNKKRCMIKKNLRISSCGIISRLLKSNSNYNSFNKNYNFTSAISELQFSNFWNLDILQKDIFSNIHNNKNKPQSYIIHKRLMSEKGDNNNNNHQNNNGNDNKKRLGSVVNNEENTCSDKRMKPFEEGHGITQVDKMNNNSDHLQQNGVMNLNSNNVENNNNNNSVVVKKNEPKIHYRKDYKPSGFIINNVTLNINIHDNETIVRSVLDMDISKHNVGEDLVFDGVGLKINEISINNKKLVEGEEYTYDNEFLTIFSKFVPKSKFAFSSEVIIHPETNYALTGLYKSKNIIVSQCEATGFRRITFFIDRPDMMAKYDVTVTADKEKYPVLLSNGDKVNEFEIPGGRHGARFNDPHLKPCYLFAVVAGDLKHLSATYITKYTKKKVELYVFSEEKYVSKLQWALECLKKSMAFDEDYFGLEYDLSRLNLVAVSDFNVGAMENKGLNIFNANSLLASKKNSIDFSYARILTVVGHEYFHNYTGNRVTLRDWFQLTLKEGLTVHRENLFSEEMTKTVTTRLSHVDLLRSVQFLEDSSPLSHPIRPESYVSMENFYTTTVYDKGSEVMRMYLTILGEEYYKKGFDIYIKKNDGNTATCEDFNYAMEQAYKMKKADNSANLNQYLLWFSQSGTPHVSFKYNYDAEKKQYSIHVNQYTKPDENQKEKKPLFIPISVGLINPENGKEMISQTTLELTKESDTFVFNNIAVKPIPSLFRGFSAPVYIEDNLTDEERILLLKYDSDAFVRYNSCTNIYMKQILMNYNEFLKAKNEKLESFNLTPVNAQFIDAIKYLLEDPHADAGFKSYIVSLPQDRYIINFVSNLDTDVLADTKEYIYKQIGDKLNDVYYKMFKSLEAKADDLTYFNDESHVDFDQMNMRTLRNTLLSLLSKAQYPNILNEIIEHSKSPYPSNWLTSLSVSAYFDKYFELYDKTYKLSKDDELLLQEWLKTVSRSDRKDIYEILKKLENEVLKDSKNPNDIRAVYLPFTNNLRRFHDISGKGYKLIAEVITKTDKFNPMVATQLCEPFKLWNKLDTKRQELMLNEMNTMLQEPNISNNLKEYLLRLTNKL

[5] = THP-1 cell cytotoxicity, dose response, cytotoxicity control for Vif-APOBEC3G degradation inhibitor project, THP-1 cells (AID 1117359); assay type: functional; settings: Human immunodeficiency virus 1, THP-1
[6] = molecular target: T2, NADPH oxidase 1 (Homo sapiens, UniProt Q9Y5S8); assay type: functional, cell-based;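 also: Cell-based assay with luminescence read-out, IC50 derived from inhibitor dose-response curves; intracellular ROS from endogenous NOX1 in intact HT29 colon cancer cells; potency of inhibitors that lower the ROS luminescence signal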
T2 sequence (Q9Y5S8 whole entry): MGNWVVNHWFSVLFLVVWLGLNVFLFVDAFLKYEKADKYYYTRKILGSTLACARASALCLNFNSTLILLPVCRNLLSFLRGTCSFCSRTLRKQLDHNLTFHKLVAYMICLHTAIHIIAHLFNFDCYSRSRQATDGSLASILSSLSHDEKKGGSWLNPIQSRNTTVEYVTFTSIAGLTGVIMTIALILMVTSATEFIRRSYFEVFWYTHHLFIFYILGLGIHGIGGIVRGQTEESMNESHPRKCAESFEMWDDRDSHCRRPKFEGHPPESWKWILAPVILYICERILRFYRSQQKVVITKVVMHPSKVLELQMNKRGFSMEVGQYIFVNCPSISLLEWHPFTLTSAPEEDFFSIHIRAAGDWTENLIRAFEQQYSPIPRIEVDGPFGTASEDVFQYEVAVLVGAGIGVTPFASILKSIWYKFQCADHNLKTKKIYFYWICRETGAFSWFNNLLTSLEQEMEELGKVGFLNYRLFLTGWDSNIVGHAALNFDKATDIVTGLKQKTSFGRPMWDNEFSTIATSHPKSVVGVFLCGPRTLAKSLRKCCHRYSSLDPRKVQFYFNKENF

[7] = test system: BJ; test: cytotoxicity toward BJ-TERT fibroblasts, dose response, cell-based, RAS-independent, luminescence (AID 1933); assay type: functional; settings: Homo sapiens
[8] = test system: BJ; test: cells; assay type: functional, cell-based; settings: Homo sapiens
[9] = test system: BJ; test: cytotoxicity toward BJ-TERT-LT-ST fibroblasts, dose response, cell-based, RAS-independent, luminescence (AID 1935); assay type: functional; settings: Homo sapiens;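 also: BJ fibroblasts immortalized with TERT plus LT and ST oncogenes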
[10] = cytotoxicity toward DRD oncogenic fibroblasts, dose response, cell-based, non-viral oncogenic, luminescence (AID 1934); assay type: functional; settings: Homo sapiens
[11] = molecular target: T3, Replicative DNA helicase DnaB (Mycobacterium tuberculosis, UniProt P9WMR3); test: DnaB intein splicing inhibitors, dose response, biochemical, cell-free fluorescence (AID 449749); assay type: functional
T3 sequence (P9WMR3 whole entry): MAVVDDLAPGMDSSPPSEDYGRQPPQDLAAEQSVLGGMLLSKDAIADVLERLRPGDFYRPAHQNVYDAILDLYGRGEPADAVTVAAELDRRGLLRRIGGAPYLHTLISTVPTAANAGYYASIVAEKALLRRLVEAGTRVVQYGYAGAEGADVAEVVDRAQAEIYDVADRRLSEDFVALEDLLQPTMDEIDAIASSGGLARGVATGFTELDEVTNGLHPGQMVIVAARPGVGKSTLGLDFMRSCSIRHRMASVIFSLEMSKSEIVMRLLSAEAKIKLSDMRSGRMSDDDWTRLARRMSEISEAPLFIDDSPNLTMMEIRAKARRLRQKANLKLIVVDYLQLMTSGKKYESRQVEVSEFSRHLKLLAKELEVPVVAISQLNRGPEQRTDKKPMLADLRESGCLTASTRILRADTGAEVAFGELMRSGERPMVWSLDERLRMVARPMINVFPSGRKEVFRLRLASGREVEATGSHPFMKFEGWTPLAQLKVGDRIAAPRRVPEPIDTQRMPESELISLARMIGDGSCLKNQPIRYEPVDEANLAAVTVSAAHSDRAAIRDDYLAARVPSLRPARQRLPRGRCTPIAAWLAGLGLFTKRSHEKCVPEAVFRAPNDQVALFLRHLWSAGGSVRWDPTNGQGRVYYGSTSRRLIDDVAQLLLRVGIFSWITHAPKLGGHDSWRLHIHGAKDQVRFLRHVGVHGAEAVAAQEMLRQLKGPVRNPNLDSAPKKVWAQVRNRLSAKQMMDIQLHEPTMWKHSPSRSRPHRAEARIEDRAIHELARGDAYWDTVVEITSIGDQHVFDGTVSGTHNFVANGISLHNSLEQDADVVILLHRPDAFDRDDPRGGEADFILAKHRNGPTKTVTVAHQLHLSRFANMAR

[12] = molecular target: T4, Protein RecA (Mycobacterium tuberculosis, UniProt P9WHJ3); test: Fluorescence Cell-Free Homogeneous Dose Retest to Identify Inhibitors of RecA-Intein Splicing Activity. [Related pubchem assays (depositor defined):AID2097, AID2223, AID489010, AID492950]; assay type: functional
T4 sequence (P9WHJ3 whole entry): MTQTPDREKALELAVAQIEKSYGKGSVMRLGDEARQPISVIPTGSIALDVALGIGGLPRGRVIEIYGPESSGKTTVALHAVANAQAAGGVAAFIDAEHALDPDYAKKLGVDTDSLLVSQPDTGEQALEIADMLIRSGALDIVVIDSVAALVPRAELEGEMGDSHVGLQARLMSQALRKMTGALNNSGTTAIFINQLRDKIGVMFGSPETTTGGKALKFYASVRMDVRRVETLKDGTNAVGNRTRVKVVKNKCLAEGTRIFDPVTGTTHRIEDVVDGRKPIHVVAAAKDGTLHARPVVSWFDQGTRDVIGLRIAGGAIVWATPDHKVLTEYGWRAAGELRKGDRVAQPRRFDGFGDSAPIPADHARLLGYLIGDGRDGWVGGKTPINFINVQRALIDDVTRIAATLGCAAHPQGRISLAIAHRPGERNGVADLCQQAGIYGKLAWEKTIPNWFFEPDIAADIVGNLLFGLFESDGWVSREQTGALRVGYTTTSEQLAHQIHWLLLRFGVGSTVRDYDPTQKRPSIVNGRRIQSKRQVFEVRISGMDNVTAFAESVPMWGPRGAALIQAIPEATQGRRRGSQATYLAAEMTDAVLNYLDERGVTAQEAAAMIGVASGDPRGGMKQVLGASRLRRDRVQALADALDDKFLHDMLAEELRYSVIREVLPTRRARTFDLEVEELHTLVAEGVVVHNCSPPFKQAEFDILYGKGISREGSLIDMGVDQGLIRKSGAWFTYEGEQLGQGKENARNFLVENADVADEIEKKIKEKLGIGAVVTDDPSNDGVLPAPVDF

[13] = molecular target: Peroxisome proliferator-activated receptor gamma/Nuclear receptor coactivator 2 (Homo sapiens, UniProt P37231); assay type: functional;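 also: agonist potency for raising coactivator recruitment to the receptor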
[14] = molecular target: Peroxisome proliferator-activated receptor gamma/Nuclear receptor coactivator 1 (Homo sapiens, UniProt P37231); assay type: functional;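 also: agonist potency as compounds enhance coactivator SRC-1 recruitment to PPARgamma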
[15] = molecular target: Peroxisome proliferator-activated receptor gamma/Nuclear receptor coactivator 3 (Homo sapiens, UniProt P37231); assay type: functional;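 also: agonist potency for raising coactivator recruitment to the receptor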
Peroxisome proliferator-activated receptor gamma/Nuclear receptor coactivator 3, sequence (P37231 whole entry): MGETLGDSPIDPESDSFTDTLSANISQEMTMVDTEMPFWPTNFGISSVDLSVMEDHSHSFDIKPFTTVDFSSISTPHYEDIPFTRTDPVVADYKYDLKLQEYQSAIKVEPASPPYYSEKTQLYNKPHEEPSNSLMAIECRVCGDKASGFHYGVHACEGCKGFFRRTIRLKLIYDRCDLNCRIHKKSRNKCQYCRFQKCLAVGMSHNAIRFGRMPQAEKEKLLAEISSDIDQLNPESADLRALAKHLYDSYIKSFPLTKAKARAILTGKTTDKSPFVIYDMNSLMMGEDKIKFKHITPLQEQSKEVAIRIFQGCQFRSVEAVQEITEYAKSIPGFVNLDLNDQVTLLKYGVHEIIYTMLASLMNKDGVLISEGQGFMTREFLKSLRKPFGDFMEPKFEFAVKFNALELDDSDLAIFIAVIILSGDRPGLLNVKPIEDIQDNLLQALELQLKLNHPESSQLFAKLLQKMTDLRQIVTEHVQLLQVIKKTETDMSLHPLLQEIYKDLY
Peroxisome proliferator-activated receptor gamma/Nuclear receptor coactivator 3, sequence (Q9Y6Q9 whole entry, further chain): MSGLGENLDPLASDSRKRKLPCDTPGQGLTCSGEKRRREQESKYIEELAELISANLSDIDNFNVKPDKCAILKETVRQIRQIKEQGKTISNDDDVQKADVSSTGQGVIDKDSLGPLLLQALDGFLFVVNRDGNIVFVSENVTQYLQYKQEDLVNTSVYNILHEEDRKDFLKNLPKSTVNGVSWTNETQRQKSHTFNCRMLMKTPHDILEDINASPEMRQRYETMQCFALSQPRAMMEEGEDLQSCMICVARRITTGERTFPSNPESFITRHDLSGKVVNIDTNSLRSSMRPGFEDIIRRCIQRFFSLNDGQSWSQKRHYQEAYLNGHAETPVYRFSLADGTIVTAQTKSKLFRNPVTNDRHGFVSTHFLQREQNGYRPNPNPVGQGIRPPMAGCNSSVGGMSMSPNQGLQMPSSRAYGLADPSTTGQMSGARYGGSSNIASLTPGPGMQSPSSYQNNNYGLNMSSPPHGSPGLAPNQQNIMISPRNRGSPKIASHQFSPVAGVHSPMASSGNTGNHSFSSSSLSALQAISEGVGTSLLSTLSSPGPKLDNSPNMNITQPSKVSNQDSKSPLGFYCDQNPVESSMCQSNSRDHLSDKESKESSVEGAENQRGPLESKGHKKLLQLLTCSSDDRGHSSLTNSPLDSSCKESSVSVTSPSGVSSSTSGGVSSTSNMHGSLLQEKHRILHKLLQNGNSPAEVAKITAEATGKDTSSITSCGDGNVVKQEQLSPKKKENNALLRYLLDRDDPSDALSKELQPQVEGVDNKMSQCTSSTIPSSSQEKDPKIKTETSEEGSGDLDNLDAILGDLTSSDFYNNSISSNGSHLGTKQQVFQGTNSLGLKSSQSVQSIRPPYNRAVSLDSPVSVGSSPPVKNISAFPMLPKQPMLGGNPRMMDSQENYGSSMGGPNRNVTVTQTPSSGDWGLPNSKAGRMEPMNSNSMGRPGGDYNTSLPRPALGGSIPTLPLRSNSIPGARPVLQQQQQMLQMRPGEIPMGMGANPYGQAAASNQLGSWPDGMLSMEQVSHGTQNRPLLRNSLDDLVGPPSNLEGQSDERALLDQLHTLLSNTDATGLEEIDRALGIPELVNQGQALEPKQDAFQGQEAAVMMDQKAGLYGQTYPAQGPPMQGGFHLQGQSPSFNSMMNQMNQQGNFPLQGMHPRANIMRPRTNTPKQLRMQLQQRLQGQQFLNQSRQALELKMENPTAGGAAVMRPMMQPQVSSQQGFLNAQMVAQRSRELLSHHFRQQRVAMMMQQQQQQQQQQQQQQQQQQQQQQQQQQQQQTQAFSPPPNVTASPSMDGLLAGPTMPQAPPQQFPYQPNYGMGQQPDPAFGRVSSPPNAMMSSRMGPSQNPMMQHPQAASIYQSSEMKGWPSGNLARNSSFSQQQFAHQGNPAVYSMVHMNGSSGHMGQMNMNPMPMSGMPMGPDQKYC

Peroxisome proliferator-activated receptor gamma/Nuclear receptor coactivator 1, sequence (P37231 whole entry): as the sequence (P37231 whole entry) above
Peroxisome proliferator-activated receptor gamma/Nuclear receptor coactivator 1, sequence (Q15788 whole entry, further chain): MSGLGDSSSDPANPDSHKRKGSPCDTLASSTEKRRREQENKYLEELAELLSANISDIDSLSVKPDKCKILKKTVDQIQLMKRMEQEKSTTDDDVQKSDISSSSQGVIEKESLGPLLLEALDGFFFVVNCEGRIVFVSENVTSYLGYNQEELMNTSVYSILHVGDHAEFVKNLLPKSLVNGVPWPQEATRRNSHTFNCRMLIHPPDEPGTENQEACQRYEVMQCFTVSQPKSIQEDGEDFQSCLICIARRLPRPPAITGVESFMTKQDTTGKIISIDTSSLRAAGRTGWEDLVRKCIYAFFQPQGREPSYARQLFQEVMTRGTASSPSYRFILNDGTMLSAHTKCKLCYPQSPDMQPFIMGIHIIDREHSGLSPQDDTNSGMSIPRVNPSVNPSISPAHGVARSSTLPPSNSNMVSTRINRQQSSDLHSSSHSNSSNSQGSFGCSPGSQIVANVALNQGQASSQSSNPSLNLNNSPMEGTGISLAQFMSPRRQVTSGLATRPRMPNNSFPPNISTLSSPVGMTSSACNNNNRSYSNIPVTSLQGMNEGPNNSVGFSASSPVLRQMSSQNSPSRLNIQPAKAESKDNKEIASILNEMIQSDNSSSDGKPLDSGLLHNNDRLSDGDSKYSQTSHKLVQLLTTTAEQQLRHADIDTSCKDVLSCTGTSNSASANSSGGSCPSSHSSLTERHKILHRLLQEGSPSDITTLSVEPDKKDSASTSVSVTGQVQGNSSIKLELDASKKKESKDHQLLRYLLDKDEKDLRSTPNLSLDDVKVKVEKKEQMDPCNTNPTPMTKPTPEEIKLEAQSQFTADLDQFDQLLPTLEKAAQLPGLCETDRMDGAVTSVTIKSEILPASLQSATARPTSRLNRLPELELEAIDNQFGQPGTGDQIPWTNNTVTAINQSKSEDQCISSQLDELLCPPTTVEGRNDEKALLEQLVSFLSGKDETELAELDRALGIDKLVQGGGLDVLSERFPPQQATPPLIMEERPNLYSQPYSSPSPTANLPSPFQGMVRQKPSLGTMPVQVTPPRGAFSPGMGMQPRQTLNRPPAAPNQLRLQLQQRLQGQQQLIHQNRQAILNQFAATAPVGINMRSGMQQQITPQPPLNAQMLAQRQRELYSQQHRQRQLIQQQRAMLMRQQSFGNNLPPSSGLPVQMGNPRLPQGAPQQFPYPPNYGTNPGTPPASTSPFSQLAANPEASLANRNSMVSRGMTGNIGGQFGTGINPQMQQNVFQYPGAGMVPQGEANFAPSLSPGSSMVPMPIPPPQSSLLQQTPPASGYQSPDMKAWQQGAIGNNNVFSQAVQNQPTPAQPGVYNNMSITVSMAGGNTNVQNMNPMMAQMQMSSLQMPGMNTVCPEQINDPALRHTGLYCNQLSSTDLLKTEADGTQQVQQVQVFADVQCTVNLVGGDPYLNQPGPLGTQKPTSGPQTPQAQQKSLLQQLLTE

## CCOC(=O)N1CCN(S(=O)(=O)c2ccc(C(=O)N(CCCN(C)C)c3nc4cc(OC)ccc4s3)cc2)CC1
[1]
  EC50: < 0.1 µM (active)
[2]
  EC50: > 30 µM (not active)
[3]
  EC50: 0.03 µM (active)

## CCOC(=O)N1CCN(c2c(NCc3ccccc3Cl)c(=O)c2=O)CC1
[4]
  IC50: 69.3 µM (active)
[5]
  CC50: 29.6 µM (active)

## Fc1ccc(-c2nc(-c3ccccc3)c(-c3ccccc3)[nH]2)cc1
[6]
  IC50: > 17 µM (not active)

## CC(C)N(c1ccccc1)c1ccc(NC(=O)CCl)cc1
[7]
  EC50: 0.344 µM (inconclusive)
[8]
  EC50: 108 µM (active)
[1]
  EC50: < 0.1 µM (active)
[2]
  EC50: > 60 µM (not active)
[9]
  EC50: > 150 µM (inconclusive)
[10]
  EC50: 1.37 µM (active)
[11]
  AC50: 4.41 µM (active)
[12]
  EC50: 0.505 µM (active)
[3]
  EC50: 0.102 µM (active)

## Clc1ccc(-c2nc(-c3ccccc3)c(-c3ccccc3)[nH]2)cc1
[6]
  IC50: > 17 µM (not active)

## O=S(=O)(c1ccccc1)c1nc(-c2ccco2)oc1N1CCOCC1
[13]
  EC50: > 79.4 µM (not active)
[14]
  EC50: 85.1 µM (not active)
[15]
  EC50: > 79.4 µM (not active)
